Molecules are shown by their SMILES. Read-outs that look alike come from different tables or passages of the source.

The values that follow come from patent US8758743B2, “Compositions containing coenzyme Q10” (Taiyo Kagaku Co., Ltd., priority 2003, dated 2014).

Data set [1] can be described thus: Storage of powder products at 50° C. under light shielding (Test Example 1-1). It counts as physicochemical. The protocol: In addition, the powder products of Examples 1-6 and 1-7 and a coenzyme Q10 itself (manufactured by Kanegafuchi Kagaku Kogyo Kabushiki Kaisha) were used as test samples, and the storage states before the beginning of storage, and after storage at 50° C. for 4 weeks or 12 weeks passed under light shielding were confirmed.

A short description of data set [2]: Bioabsorbability Test 2 of coenzyme Q10 (Test Example 1-4). The format is in vivo. To be noted: male, SD, rat, plasma, po, 5 mg/kg; for concentration at 1 h: 1 hour after administration; for AUC: read-out: AUC1-24. On the procedure:
The bioabsorbability of a coenzyme Q10 was evaluated by administering each of the coenzyme Q10-containing composition of Example 1-2 and a coenzyme Q10 itself to a rat as a test sample, sampling blood over time, and measuring the coenzyme Q10 concentration in the plasma, and the bioabsorbability was compared among the test samples.
The feeding conditions were set in 2 ways; a case where rats were allowed to take the feed ad libitum (satiation), and a case where rats were made to fast since the early-evening of the previous day of the test, and where the rats were fed again after blood sampling of 8 hours after the administration of the test sample.
The solution of distilled water in Tests A and A′ was prepared by adding the coenzyme Q10-containing composition of Example 1-2 to distilled water and mixing the mixture. The suspension of a 0.5(w/v)% aqueous CMC—Na solution in Tests B and B′ was prepared by adding a coenzyme Q10 itself to a 0.5(w/v)% aqueous CMC-Na solution and subjecting the mixture to ultrasonication.
The conditions and the like for this test are listed hereinbelow. • Rat: SD line, 7-week old, male, n=4 • Dose: The test samples calculated as 5 mg of a coenzyme Q10 per 1 kg of the body weight of a rat were administered. • Amount of administered liquid: The suspension or the solution used in Tests A, A′, B, or B′ was administered in an amount of 5 mL per 1 kg of the body weight of a rat.
Method of administration, blood sampling, time of blood sampling, processing of blood and method of quantification were same as those in the above-mentioned Test Example 1-3.

Consider `COC1=C(OC)C(=O)C(C/C=C(\C)CC/C=C(\C)CC/C=C(\C)CC/C=C(\C)CC/C=C(\C)CC/C=C(\C)CC/C=C(\C)CC/C=C(\C)CC/C=C(\C)CCC=C(C)C)=C(C)C1=O` [Coenzyme Q10 Powder, coenzyme Q10], for which the “Storage State” value in data set [1] (after 4 weeks) is recorded as “Melted”. Besides, in data set [1] (after 12 weeks), the “Storage State” value was “Melted”. For the same compound, in data set [2] (fasting), the concentration at 1 h is 30 ± 10 ng/mL, the concentration at 2 h turned out to be 30 ± 10 ng/mL, the concentration at 4 h is 30 ng/mL and the concentration at 8 h came to 30 ± 10 ng/mL. For the same compound, in data set [2] (fasting), the concentration at 24 h came to 40 ± 110 ng/mL and the AUC is 780 ± 300 ng·h/mL. Besides, in data set [2] (satiation), the concentration at 1 h came to 120 ± 70 ng/mL, the concentration at 2 h turned out to be 170 ± 110 ng/mL, the concentration at 4 h was 260 ± 90 ng/mL and the concentration at 8 h was found to be 270 ± 90 ng/mL. Moreover, in data set [2] (satiation), the concentration at 24 h came to 110 ± 40 ng/mL and the AUC came to 4780 ± 1310 ng·h/mL.
